Measurements: patent US20120040898A1, “PHARMACEUTICAL COMPOSITIONS” (TAISHO PHARMACEUTICAL CO., LTD, priority 2009, published 2012)
Counter-ions that a name gives are not always drawn.

How the values were obtained:
Type in all cases: in vivo
[1] = tested on: Zucker fatty rats; assay: Combination treatment of compound A and voglibose in diabetic rats (soluble starch loading); settings: fasted Zucker fatty rats; single oral dose compound A 1 mg/kg, voglibose 0.1 mg/kg, alone or combined; soluble starch 2 g/kg one minute later; up to 120 minutes; mean ± standard error
Protocol: Six male Zucker fatty rats (10-week old) were fasted and orally administered with single doses of compound A (1 mg/kg) and an α-glucosidase inhibitor, voglibose (0.1 mg/kg), either alone or in combination. […] Wako Pure Chemical Industries, Ltd.)

[2] = tested on: Zucker fatty rats; assay: Combination treatment of compound A and sitagliptin in diabetic rats (oral glucose loading); settings: fasted Zucker fatty rats; single oral dose compound A 1 mg/kg, sitagliptin 0.3 mg/kg, alone or combined; glucose 2 g/kg one hour later; up to 120 minutes; mean ± standard error
Protocol: Eight male Zucker fatty rats/group (10-week old) were fasted and orally administered with single doses of compound A (1 mg/kg) and a DPP-IV inhibitor, sitagliptin (0.3 mg/kg), either alone or in combination. […] Wako Pure Chemical Industries, Ltd.)

[3] = tested on: Zucker fatty rats; assay: Combination treatment of compound A and vildagliptin in diabetic rats (oral glucose loading); settings: fasted Zucker fatty rats; single oral dose compound A 1 mg/kg, vildagliptin 3 mg/kg, alone or combined; glucose 2 g/kg one hour later; up to 120 minutes; mean ± standard error
Protocol: One hour after the administration, the rats were orally administered with glucose solutions (2 g/kg); blood was taken from the tail vein of each rat at specified time intervals and centrifuged to collect plasma. Plasma glucose levels were measured by mutarotase-GOD method with a glucose assay kit (Glucose C2 Test Wako; Wako Pure Chemical Industries, Ltd.)

[4] = tested on: db/db mice; assay: Chronic combination treatment of compound A and metformin hydrochloride in diabetic mice; settings: mean ± standard error; for Change in GHb (%) / Change in plasma IRI level: 27 days; for Fasting plasma glucose level: after 27 days, fasted 16 hours; for Change in plasma IRI level: non-fasting
[5] = tested on: KKAy mice; assay: Chronic combination treatment of compound A and glimepiride in diabetic mice; settings: non-fasting, compound A 0.03% mixed diet, glimepiride 0.5 mg/kg once daily, alone or combined, one hour after drug administration, mean ± standard error
Protocol: Seven or eight female KKAy mice/group (4-week old; CLEA JAPAN, Inc.) were orally administered with repeated doses of compound A (0.03% mixed diet; ad libitum) and an insulin secretagogue, glimepiride (0.5 mg/kg, once daily; SIGMA-ALDRICH JAPAN K.K.), either alone or in combination, for 8 weeks. […] Plasma glucose levels were measured by the GDH electrode method with a self-testing glucose measuring instrument (Glutest Neo Super; […]

[6] = tested on: Zucker fatty rats; assay: Combination treatment of compound A and acarbose in diabetic rats (soluble starch loading); settings: fasted Zucker fatty rats; single oral dose compound A 1 mg/kg, acarbose 1 mg/kg, alone or combined; soluble starch 2 g/kg one minute later; up to 120 minutes; mean ± standard error
Protocol: Six male Zucker fatty rats (11-week old) were fasted and orally administered with single doses of compound A (1 mg/kg) and an α-glucosidase inhibitor, acarbose (1 mg/kg), either alone or in combination. […] Wako Pure Chemical Industries, Ltd.)

[7] = tested on: rats with STZ-induced diabetes mellitus; assay: Combination treatment of compound A and insulin in diabetic rats; settings: STZ diabetic SD rats, non-fasting; single oral dose compound A 1 mg/kg, subcutaneous slow-release insulin implant (one pellet), alone or combined; up to 8 hours; mean ± standard error
From the text: SD rats (7-week old; CHARLES RIVER LABORATORIES JAPAN, INC.) were intraperitoneally administered with streptozocin (SIGMA-ALDRICH JAPAN K.K.; hereinafter abbreviated as STZ) to induce diabetes. The rats with STZ-induced diabetes mellitus (8-week old) underwent subcutaneous implant of a slow-release insulin (one pellet of […] Canada, Inc.) or sham operation. […] Blood was taken from the tail vein of each rat at specified time intervals and centrifuged to collect plasma. […] Wako Pure Chemical Industries, Ltd.)

[8] = tested on: high-fat diet loaded mice with STZ-induced diabetes mellitus; assay: Combination treatment of compound A and glipizide in diabetic mice; settings: high-fat diet STZ diabetic ICR mice, non-fasting; single oral dose compound A 1 mg/kg, glipizide 10 mg/kg, alone or combined; up to 8 hours; mean ± standard error
Protocol: After 3 weeks a high-fat diet (D12492 of Research Diets, Inc.) feeding, ICR mice (CHARLES RIVER LABORATORIES JAPAN, INC.) were intraperitoneally administered streptozocin (SIGMA-ALDRICH JAPAN K.K.; hereinafter abbreviated as STZ) to induce diabetes. […] SIGMA-ALDRICH JAPAN K.K.), either alone or in combination. Blood was taken from the tail vein of each mouse at specified time intervals and plasma glucose levels were measured by GOD colorimetry with a self-testing glucose measuring instrument (Medisafe Mini GR-102; TERUMO CORPORATION, Japan).

[9] = tested on: KKAy mice; assay: Combination treatment of compound A and glimepiride in diabetic mice; settings: non-fasting, single oral dose compound A 10 mg/kg, glimepiride 0.5 mg/kg, alone or combined, up to 3 hours, mean ± standard error
Protocol: (§1) CLEA Japan, Inc.) and 10 female C57BL mice/group (normal mice; 4-week old; CLEA Japan, Inc.) were orally administered with single doses of compound A (10 mg/kg) and an insulin secretagogue, glimepiride (0.5 mg/kg; SIGMA-ALDRICH JAPAN K.K.), either alone or in combination. Blood was taken from the tail vein of each mouse at specified time intervals and plasma glucose levels were measured by the GDH electrode method with a self-testing glucose measuring instrument (Glutest Neo Super; […] CO., LTD.)

[10] = tested on: C57BL mice; assay: Combination treatment of compound A and glimepiride in normal mice; settings: normoglycemic C57BL mice, non-fasting; single oral dose compound A 10 mg/kg, glimepiride 0.5 mg/kg, alone or combined; up to 3 hours; mean ± standard error
Protocol: as §1

[11] = tested on: high-fat diet loaded mice with STZ-induced diabetes mellitus; assay: Combination treatment of compound A and glibenclamide in diabetic mice; settings: high-fat diet STZ diabetic ICR mice, non-fasting; single oral dose compound A 1 mg/kg, glibenclamide 10 mg/kg, alone or combined; up to 8 hours; mean ± standard error
From the text: After 3 weeks a high-fat diet (D12492 of Research Diets, Inc.) feeding, ICR mice (CHARLES RIVER LABORATORIES JAPAN, INC.) were intraperitoneally administered with streptozocin (SIGMA-ALDRICH JAPAN K.K.; hereinafter abbreviated as STZ) to induce diabetes. […] SIGMA-ALDRICH JAPAN K.K.), either alone or in combination. Blood was taken from the tail vein of each mouse at specified time intervals and centrifuged to collect plasma. […] Wako Pure Chemical Industries, Ltd.)

[12] = tested on: Zucker fatty rats; assay: Combination treatment of compound A and miglitol in diabetic rats (soluble starch loading); settings: fasted Zucker fatty rats; single oral dose compound A 0.5 mg/kg, miglitol 3 mg/kg, alone or combined; soluble starch 2 g/kg one minute later; up to 120 minutes; mean ± standard error
Protocol: Six male Zucker fatty rats (9-week old) were fasted and orally administered with single doses of compound A (0.5 mg/kg) and an α-glucosidase inhibitor, miglitol (3 mg/kg), either alone or in combination. One minute after the administration, the rats were orally administered with soluble starch solutions (2 g/kg); blood was taken from the tail vein of each rat at specified time intervals and centrifuged to collect plasma. Plasma glucose levels were measured by mutarotase-GOD method with a glucose assay kit (Glucose C2 Test Wako; Wako Pure Chemical Industries, Ltd.)

[13] = tested on: db/db mice; assay: Chronic combination treatment of compound A and pioglitazone in diabetic mice; settings: compound A 3 mg/kg, pioglitazone 10 mg/kg, once daily oral, alone or combined, 27 days, mean ± standard error; for Change in GHb (%): after minus before; for Change in plasma IRI level: non-fasting
[14] = metformin hydrochloride 100 mg/kg, alone or with compound A 3 mg/kg
[15] = metformin hydrochloride 300 mg/kg, alone or with compound A 3 mg/kg

OCC(CO)N[C@H]1C[C@](O)(CO)[C@@H](O)[C@H](O)[C@H]1O [Voglibose, voglibose]
Δ plasma glucose AUC [1]: 12395.5 ± 543.0 mg·min/dL

N[C@@H](CC(=O)N1CCn2c(nnc2C(F)(F)F)C1)Cc1cc(F)c(F)cc1F [Sitagliptin, sitagliptin]
Δ plasma glucose AUC [2]: 13881.4 ± 1292.9 mg·min/dL

CCOc1ccc(Cc2cc([C@@H]3S[C@H](CO)[C@@H](O)[C@H](O)[C@H]3O)c(OC)cc2C)cc1 [Compound A, (1S)-1,5-anhydro-1-[5-(4-ethoxybenzyl)-2-methoxy-4-methylphenyl]-1-thio-D-glucitol]
Δ plasma glucose AUC [3]: 11690.1 ± 807.9 mg·min/dL | Change in GHb (%) ([4]; compound A 3 mg/kg once daily oral, alone, GHb after minus before): 0.14 ± 0.39% | Fasting plasma glucose level ([4]; compound A 3 mg/kg once daily oral, alone): 275.0 ± 28.7 mg/dL | Change in plasma IRI level ([4]; compound A 3 mg/kg once daily oral, alone, after minus before): -5.01 ± 2.11 ng/mL | Δ plasma glucose AUC [2]: 11239.9 ± 617.8 mg·min/dL | Plasma glucose level at 4 wk of administration [5]: 154.8 ± 5.9 mg/dL | Plasma glucose level at 8 wk of administration [5]: 168.6 ± 2.2 mg/dL | Δ plasma glucose AUC [6]: 9861.6 ± 1076.0 mg·min/dL | Plasma glucose AUC [7]: 3983.4 ± 194.5 mg·h/dL | Δ plasma glucose AUC [1]: 10940.4 ± 952.7 mg·min/dL | Δ plasma glucose AUC [8]: -310.3 ± 157.2 mg·h/dL | Δ plasma glucose AUC [9]: -83.0 ± 14.6 mg·h/dL | Δ plasma glucose AUC [10]: -4.2 ± 8.5 mg·h/dL | Δ plasma glucose AUC [11]: -130.1 ± 164.9 mg·h/dL | Δ plasma glucose AUC [12]: 11655.9 ± 1021.8 mg·min/dL | Change in GHb (%) [13]: 3.15 ± 0.16% | Non-fasting plasma glucose level [13]: 607.9 ± 21.6 mg/dL | Change in plasma IRI level [13]: -27.81 ± 4.41 ng/dL

COc1ccc(Cl)cc1C(=O)NCCc1ccc(S(=O)(=O)NC(=O)NC2CCCCC2)cc1 [Glibenclamide, glibenclamide]
Δ plasma glucose AUC [11]: 140.3 ± 107.2 mg·h/dL

OCCN1C[C@H](O)[C@@H](O)[C@H](O)[C@H]1CO [Miglitol, miglitol]
Δ plasma glucose AUC [12]: 8909.4 ± 1390.0 mg·min/dL

CCC1=C(C)CN(C(=O)NCCc2ccc(S(=O)(=O)NC(=O)N[C@H]3CC[C@H](C)CC3)cc2)C1=O [Glimepiride, glimepiride]
Plasma glucose level at 4 wk of administration [5]: 137.6 ± 13.3 mg/dL | Plasma glucose level at 8 wk of administration [5]: 160.4 ± 8.2 mg/dL | Δ plasma glucose AUC [9]: -118.6 ± 20.2 mg·h/dL | Δ plasma glucose AUC [10]: -104.0 ± 9.3 mg·h/dL

C[C@H]1O[C@H](O[C@H]2[C@H](O)[C@@H](O)[C@@H](O[C@H]3[C@H](O)[C@@H](O)C(O)O[C@@H]3CO)O[C@@H]2CO)[C@H](O)[C@@H](O)[C@@H]1N[C@H]1C=C(CO)[C@@H](O)[C@H](O)[C@H]1O (stereo partly drawn) [Acarbose, acarbose]
Δ plasma glucose AUC [6]: 10192.8 ± 913.6 mg·min/dL

CCc1ccc(CCOc2ccc(CC3SC(=O)NC3=O)cc2)nc1 (stereo not drawn) [Pioglitazone, pioglitazone]
Change in GHb (%) [13]: 3.04 ± 0.36% | Non-fasting plasma glucose level [13]: 555.2 ± 56.9 mg/dL | Change in plasma IRI level [13]: -43.29 ± 3.83 ng/dL

CN(C)C(=N)N=C(N)N [Metformin hydrochloride, metformin hydrochloride]
Fasting plasma glucose level [4, 14]: 378.3 ± 33.4 mg/dL | Change in GHb (%) ([4]; metformin hydrochloride 100 mg/kg, alone or with compound A 3 mg/kg, oral): 2.08 ± 0.33% | Fasting plasma glucose level [4, 15]: 254.0 ± 24.7 mg/dL | Change in GHb (%) ([4]; metformin hydrochloride 300 mg/kg, alone or with compound A 3 mg/kg, oral): 1.70 ± 0.23% | Change in plasma IRI level [4, 14]: -9.81 ± 0.91 ng/mL | Change in plasma IRI level [4, 15]: -7.36 ± 1.29 ng/mL
